Reference: patent US20200383985A1, “Inhibitors of Protease Activated Receptor-2” (Endosome Therapeutics, Inc., priority 2017, published 2020)
Like-named read-outs stand apart in the source and are kept apart here.

Assays:
[1] = test system: cytosolic and nuclear ERK; test: FRET assays of cytosolic and nuclear ERK in HEK293 cells; format: cell-based; details: for trypsin activation of cytosolic and nuclear ERK: I-343 10 μM, SCH530348 100 nM, PS2 30 μM
Experimental: Trypsin-induced ERK signaling mediated by endosomal PAR2 signaling was investigated in HEK293 cells expressing Flag-PAR2-HA11 and FRET biosensors for cytosolic and nuclear ERK (CytoEKAR, NucEKAR), plasma membrane and cytosolic PKC (pmCKAR, CytoCKAR), and plasma membrane and cytosolic cAMP (pmEpac, CytoEpac). […] I-343 (10 μM) but not SCH530348 (100 nM) inhibited trypsin activation of cytosolic and nuclear ERK (FIG. 5G). PS2 and DynK44E inhibited trypsin-stimulated activation of cytosolic and nuclear ERK when compared to PS2 inact and DynWT controls (FIG. 5H, 5I, 17G-J). AG1478 (1 μM), an inhibitor of EGF receptor tyrosine kinase (Levitzki, A. & Gazit, A. Science 1995, 267(5205): 1782-1788), UBO-QIC (100 nM), which inhibits Gαq and certain Gβγ signals ([…]), and G66983 (1 μM), which inhibits all isoforms of PKC (Gschwendt, M, et al., FEBS Lett 1996, 392(2): 77-80), suppressed trypsin-stimulated activation of cytosolic ERK (FIGS. 5J and 17K).
HEK293 cells were cultured in DMEM supplemented with 10% (v/v) FBS (5% CO2, 37° C.). When necessary serum restriction was achieved by replacing culture medium with DMEM containing 0.5% FBS overnight. Cells were transiently transfected using polyethylenimine (PEI) (1:6 DNA:PEI).
HEK293 cells were transiently transfected in 10 cm dishes (˜50% confluency) with Flag-PAR2-HA (2.5 μg) and FRET biosensors CytoEKAR or NucEKAR (2.5 μg) (Jensen, D. D. et al., Sci Transl Med. 2017, 9(392), eaal3447; Thomsen, A. R. B., et al., Cell 2016, 166(4): 907-919). In experiments examining the role of dynamin, cells were transfected with FLAG-PAR2-HA (1.25 μg), FRET biosensor (1.25 μg) and either DynWT-HA, DynK44E-HA or pcDNA3.1 (2.5 μg). At 24 h after transfection, cells were seeded on ViewPlate-96 well plates (PerkinElmer). FRET was assessed 72 h post-transfection, following overnight serum restriction. Cells were equilibrated in HBSS-HEPES (30 min, 37° C.). FRET was measured using a PHERAstar FSX Microplate Reader (BMG LabTech). For CFP/YFP emission ratio analysis, cells were sequentially excited using a CFP filter (425/10 nm) with emission measured using YFP (550/50 nm) and CFP (490/20 nm) filters. FRET was measured before and after stimulation with trypsin (10 nM), NE (100 nM), CS (100 nM), phorbol 12,13-dibutyrate, PDBu (positive control, 1 μM), or vehicle. FRET ratios (donor/acceptor intensity for EKAR, or acceptor/donor intensity for CKAR and Epac) were calculated and corrected to baseline and vehicle treatments to determine ligand-induced FRET (ΔFRET). Treatment effects were determined by comparison of area under the curve values. Signalling inhibitors were dissolved in HBSS-HEPES. PS2 and PS2 inact were dissolved in HBSS-HEPES+1% DMSO. Cells were incubated with UBO-QIC (100 nM), AG1478 (1 μM), G66983 (1 μM), PS2 or PS2 inact (30 μM) or vehicle (30 min preincubation, inclusion throughout).

mice = test: Somatic mechanical nociception, von Frey filaments after intraplantar injection; format: in vivo, mouse; details: for NE- and CS-induced allodynia / trypsin-induced mechanical allodynia: inhibitor 50 μM, 10 μl intraplantar; for NE- and CS-induced allodynia: 30 min before NE (1.2 μM) or CS (2.5 μM); for trypsin-induced mechanical allodynia: 30 min before trypsin (10 nM), at 1 and 2 h; for mechanical allodynia after intraplantar protease: WT mice, 10 μl trypsin (80 nM), NE (3.9 μM) or CS (5 μM), within 30 min, maintained for 180 min
Experimental: After 30 min, trypsin (10 nM), NE (1.2 μM), or CS (2.5 μM) (10 μl) was injected into the same paw.
Mice were acclimatized to the experimental apparatus, room and investigator for 1-2 h on 2 successive days before studies. Investigators were blinded to the test agents. Mice were sedated (5% isoflurane) for intraplantar injections. Dy4a, Dy4 inact, PS2, PS2 inact (all 50 μM) or vehicle (0.2% DMSO in 0.9% NaCl) (10 μl) was injected into the left hindpaw. After 30 min, trypsin (10 or 80 nM), CS (2.5 or 5 μM) or NE (1.2 or 3.9 μM) (all 10 μl) was injected into the same hindpaw. Mechanical nociceptive responses were evaluated by examining paw withdrawal to stimulation of the plantar surface of the hind-paw with calibrated von Frey filaments. von Frey scores were measured in triplicate to establish a baseline for each animal on the day before experiments, and were then measured for up to 4 h after protease administration. To assess edema, paw thickness was measured at the site of injection between the plantar and the dorsal surfaces of the paw using digital calipers. For evaluation of neutrophil infiltration, paws were collected at 4 h after intraplantar injection of trypsin (10 μl, 80 nM) or vehicle, fixed in 10% neutral buffered formalin for 48-72 h, bisected, and fixed in formalin for an additional 12 h. Tissue was decalcified in 10% 0.5 M EDTA for 6 days, washed in water, transferred to 70% ethanol for 24 h, and embedded in paraffin. Sections (5 μm) were incubated with neutrophil antibody Ly6G/6C clone NIMP-R14 (Abcam #ab2557, Lot #GR135037-1, AB_303154, 1:800, room temperature, 12 h). Sections were processed for chromogenic immunohistochemistry on a Ventana Medical Systems Discovery XT platform with online deparaffinization using Ventana's reagents. Ly6G/Ly6c was enzymatically treated with protease-3 (Ventana Medical Systems) for 8 min. Ly6G/Ly6c was detected with goat anti-rat horseradish peroxidase conjugated multimer incubated for 16 min.

PAR2-RLuc8 = molecular target: T1, PAR2-RLuc8 (Homo sapiens, UniProt P55085); test: BRET assays of PAR2 endocytosis in HEK293 cells; format: cell-based; details: for EC50: HEK293 cells
T1 construct: expressed in transfected cells; host or cells: HEK293, transient transfection with PEI
T1 sequence (P55085 26-397): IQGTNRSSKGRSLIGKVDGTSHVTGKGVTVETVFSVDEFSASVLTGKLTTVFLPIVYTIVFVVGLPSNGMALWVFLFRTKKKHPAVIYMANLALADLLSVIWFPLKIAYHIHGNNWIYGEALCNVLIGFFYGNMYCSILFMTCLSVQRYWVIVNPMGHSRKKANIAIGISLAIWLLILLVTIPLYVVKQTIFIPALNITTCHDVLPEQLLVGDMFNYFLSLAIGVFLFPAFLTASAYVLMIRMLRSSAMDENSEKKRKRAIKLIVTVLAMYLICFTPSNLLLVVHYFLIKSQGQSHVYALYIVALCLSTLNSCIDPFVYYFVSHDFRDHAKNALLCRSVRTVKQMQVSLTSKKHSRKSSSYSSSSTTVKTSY

Compound | trypsin activation of cytosolic and nuclear ERK [1] | NE- and CS-induced allodynia (mice) | trypsin-induced mechanical allodynia (mice) | mechanical allodynia after intraplantar protease (mice) | also measured
Cc1nc(C(=O)N2CCN(C(=O)c3cn4nc(-c5ccc(F)cc5)cc(C(C)(C)C)c4n3)C(C)(C)C2)n[nH]1 [Compound I-343, (8-(tert-butyl)-6-(4-fluorophenyl)imidazo[1,2-b]pyridazin-2-yl)(2,2-dimethyl-4-(5-methyl-1H-1,2,4-triazole-3-carbonyl)piperazin-1-yl)methanone] | inhibited |  |  |  | 
O=C(N/N=C/c1cc(O)c(O)cc1O)c1cc2ccccc2cc1O [Dy4] |  | unchanged or minimally affected | inhibited |  | 
O=C1NC(=NS(=O)(=O)c2cccc3ccccc23)S/C1=C\c1ccc(Br)cc1 [PS2] | inhibited | unchanged or minimally affected | inhibited |  | trypsin-induced decrease in PAR2-RLuc8/RIT-Venus BRET and increase in PAR2-RLuc8/Rab5a-Venus BRET (PAR2-RLuc8; PS2 or PS2 inact): suppressed
NE: protease (elastase) activating PAR2 by biased mechanisms |  |  |  | induced mechanical allodynia | PAR2-RLuc8/RIT-Venus or Rab5a-Venus BRET (PAR2-RLuc8; 100 nM): Neither NE nor CS (100 nM) affected
trypsin |  |  |  | induced mechanical allodynia | EC50 (PAR2-RLuc8; read-out: EC50, decrease in PAR2-RLuc8/RIT-Venus BRET): 2.9 nM; EC50 (PAR2-RLuc8; read-out: EC50, increase in PAR2-RLuc8/Rab5a-Venus BRET): 2.7 nM; PAR2-RLuc8/Rab5a-Venus BRET after 60 min (PAR2-RLuc8; compared to HC supernatant, trypsin 10 nM positive control): increased; EC50 ([1]; HEK293 cells, read-out: EC50, activation of ERK in the cytosol and nucleus): 5 nM; activation of ERK in the cytosol and nucleus ([1]; trypsin 10 nM, NE or CS 100 nM): stimulated a rapid and persistent activation
